Here are results for three compounds from US20040077651A1, “Remedies for cancer” (priority 2000, published 2004).

In the assay the target is T1, Human type-X sPLA2 (Homo sapiens, UniProt O15496).
T1 construct: made in house; unpurified culture supernatant
T1 sequence (O15496 43-165): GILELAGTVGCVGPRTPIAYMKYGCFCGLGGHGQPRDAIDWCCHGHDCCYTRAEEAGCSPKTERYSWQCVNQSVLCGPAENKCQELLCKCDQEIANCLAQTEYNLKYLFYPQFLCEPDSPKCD
The experiment in a line: Type-X sPLA2 inhibition test (chromogenic assay, diheptanoylthio PC). Format: biochemical. The following applies: culture supernatant of CHO cells expressing human type-X sPLA2, 30 min at 40° C., absorbance at 405 nm. From the text: cDNA sequence encoding human type-X sPLA2 (Cupillard et al., J. Biol. Chem, 1997, 272, 15745-15752) was inserted into the downstream region of the promoter of pSVL SV40 Late Promoter Expression Vector (Amersham Pharmacia Biotech Inc.) that is an expression vector for mammalian cells. The obtained expression vector was transfected into the host CHO cells with a LipofectAMINE reagent (Gibco BRL Inc.) according to the manufacture's instruction to obtain the CHO cells stably expressing human type-X sPLA2. The transfected cell was cultured in α-MEM medium containing 10% fetal calf serum for 3 days and its culture supernatant was used for the measurement of each enzyme activity.
In order to identify and evaluate an inhibitor of type-X sPLA2, the following chromogenic assay is utilized. This assay has been applied for high volume screening using a 96-well microtiterplate. A general explanation for this assay is described in “Analysis of Human Synovial Fluid Phospholipase A2 on Short Chain Phosphatidylcholine-Mixed Micelles: Development of a Spectrophotometric Assay Suitable for a Micortiterplate Reader” (Analytical Biochemistry, 204, pp 190-197, 1992 by Laure. J. Reynolds. Lori L. Hughes and Edward A. Dennis.
Test compounds (or solvent blank) were added according to the alignment of plates that had been previously set. Human type-X sPLA2 was incubated (30 min at 40° C. (15 μl/well)) with diheptanoylthio PC (1 mM) in the presence of Triton X-100 (0.3 mM) and 5,5′-dithiobis(2-nitrobenzoic acid) (125 μM) in Tris-HCl buffer (25 mM, pH 7.5) containing CaCl2 (10 mM), KCl (100 mM), and bovine serum albumin (1.0 mg/mL). The changes in the absorbance at 405 nm were measured and the inhibition activities were calculated.
The IC50 value was determined by plotting the log concentration of the above-mentioned compounds (1)-(19) with respect to their inhibition values within 10% to 90% inhibitory range.

Consider `CCCc1c(C(=O)C(N)=O)c2c(OCC(=O)O)nc(C)cn2c1CCc1ccccc1` [Compound 6], for which the IC50 (as a rule, the concentration that inhibits the measured activity by half) was 17 nM. In other words, the double-digit nanomolar range. In the case of `NC(=O)C1=CCCc2c1c1c(OCC(=O)O)cccn1c2Cc1ccccc1` [Compound 7] it was 5 nM; in that of `NC(=O)c1cccc2c1c1c(OCC(=O)O)cc(-c3ccco3)cc1n2Cc1ccccc1` [Compound 11], 10 nM.
